# According to patent US5773437A, “Alkylenediamine derivatives” (Nippon Chemiphar Co., Ltd., priority 1994, dated 1998):
# Structures can show the parent of a compound that is named as a salt.
# Columns and labels:
# [1] = test system: bladder (urinating contraction); experiment: Period of inhibition of rhythmic bladder contraction (urinating contraction) in urethane-anesthetized rats; type: in vivo, rat (Wistar strain, male); conditions: rat, saline control 1.6 min
# Experimental: The compound of the invention was evaluated in urinating contraction of bladder by the following test method.
# A male rat (Wistar strain) was fixed on his back under urethane anesthesia (1.5 g/kg, S.C.). A tracheal cannula was inserted into the rat to respire easily, and its hypogastrium was subjected to median dissection for exposing its bladder. A small opening was made on the top of the bladder to remove urine. To the bladder was inserted a polyethylene cannula. The bladder system was made to closed system by ligating urethra and ureter.
# A physiological saline was injected into the bladder of rat at a rate of 0.05 mL/min. using a continuous injector so as to cause periodical urinating contraction. The intravesical pressure of the bladder was measured by means of a pressure transducer. The measured value was recorded on a pen-writing recorder. The compound to be tested was dissolved in a physiological saline and administered into the femoral vein using the polyethylene cannula.
# The action for relieving urinating contraction was evaluated by measuring a period of time during which the rhythimic bladder contraction was inhibited (period of contraction inhibition).
# The compounds tested were those obtained in the working examples.
# [2] = Mouse acute toxicity LD50 (i.v.), Probit method; type: in vivo; conditions: calculated by Probit method; for LD50: in vivo, iv
# Text: The results seen in Table 4 clearly indicate that the compound of the invention is effective in relieving urinating contraction. Further, the toxicity of the compound is set forth in Table 4 in terms of LD50 (mg/kg) calculated by Probit method.
# [3] = 6 mg/kg i.v., Hydrochloride, 6 mg/kg
# [4] = 6 mg/kg i.v., Fumarate, 6 mg/kg
Structure (SMILES),Period of Contraction Inhibition ([1]; 8 mg/kg i.v.),LD50 [2],also measured
"N#CC1(c2ccccc2)CCN(CCCN2CC(=O)c3ccccc3S2(=O)=O)CC1.O=C(O)/C=C/C(=O)O [Example 32, 2-[3-(4-Cyano-4-phenylpiperidino)propyl]-2H-1,2-benzothiazin-4(3H)-one 1,1-Dioxide Fumarate]",6 min,,
"Cl.O=C1CN(C(CCN2CCOCC2)c2ccccc2)S(=O)(=O)c2ccccc21 (single isomer, unassigned; (-)) [Example 20[B], (-)-2-(3-Morpholino-1-phenylpropyl)-2H-1,2-benzothiazin-4(3H)-one 1,1-Dioxide Hydrochloride]",,140 mg/kg,
"O=C1c2ccccc2S(=O)(=O)N1C(CCN1CCN(c2ncccn2)CC1)c1ccccc1 (stereo not drawn) [Example XII, 2-[1-Phenyl-3-[4-(2-pyrimidinyl)-1-piperazinyl]propyl-1,2-benzisothiazol-3(2H)-one 1,1-Dioxide Hydrochloride]",,> 200 mg/kg,Period of Contraction Inhibition ([1]; 20 mg/kg i.v.): 3.5 min
"O=C1c2ccccc2S(=O)(=O)N1C(CCN1CCOCC1)c1ccccc1 (stereo not drawn) [Example IX, 2-(3-Morpholino-1-pheny)propyl-1,2-benzisothiazol-3(2H)-one 1,1-Dioxide Fumarate]",,48 mg/kg,Period of Contraction Inhibition ([1]; 5 mg/kg i.v.): 10.7 min
"Cl.O=C1CN(CCN2CCC(Cc3ccccc3)CC2)S(=O)(=O)c2ccccc21 [Example 13, 2-[2-(4-Benzylpiperidino)ethyl]-2H-1,2-benzothiazin-4(3H)-one 1,1-Dioxide Hydrochloride]",18 min,,
"Cl.O=C1CN(C(CCN2CCSCC2)c2ccccc2)S(=O)(=O)c2ccccc21 (stereo not drawn) [Example 21, 2-(1-Phenyl-3-thiomorpholinopropyl)-2H-1,2-benzothiazin-4(3H)-one 1,1-Dioxide Hydrochloride]",,> 100 mg/kg,Period of Contraction Inhibition ([1]; 10 mg/kg i.v.): 7.0 min
"Cl.O=C1CN(C(CCN2CCOCC2)c2ccccc2)S(=O)(=O)c2ccccc21 (single isomer, unassigned; (+)) [Example 20[C]] [(+)-2-(3-Morpholino-1-phenylpropyl)-2H-1,2-benzothiazin-4(3H)-one 1,1-Dioxide Hydrochloride]",,,"Period of Contraction Inhibition [1, 3]: 6.0 min; Mouse LD50 ([2]; Hydrochloride): 180 mg/kg"
"Cl.O=C1CN(C(CCN2CCOCC2)c2ccccc2)S(=O)(=O)c2ccccc21 (single isomer, unassigned; (-)) [Example 20[B]] [(-)-2-(3-Morpholino-1-phenylpropyl)-2H-1,2-benzothiazin-4(3H)-one 1,1-Dioxide Hydrochloride]",,,"Period of Contraction Inhibition [1, 3]: 0.4 min"
"Cl.O=C1CN(CCCN2CCN(Cc3ccccc3)CC2)S(=O)(=O)c2ccccc21 [Example 14, 2-[3-(4-Benzyl-1-piperazinyl)propyl]-2H-1,2-benzothiazin-4(3H)-one 1,1-Dioxide Hydrochloride]",12.7 min,17 mg/kg,
"Cl.O=C1CN(CCCN2CCC(OCc3ccccc3)CC2)S(=O)(=O)c2ccccc21 [Example 2, 2-[3-(4-Benzyloxypiperidino)propyl]-2H-1,2-benzothiazin-4(3H)-one 1,1-Dioxide Hydrochloride]",16 min,,
"O=C1c2ccccc2S(=O)(=O)N1C(CCN1CCSCC1)c1ccccc1 (stereo not drawn) [Example II, 2-(1-Phenyl-3-thiomorpholino)propyl-1,2-benzisothiazol-3(2H)-one 1,1-Dioxide Fumarate]",,47 mg/kg,Period of Contraction Inhibition ([1]; 5 mg/kg i.v.): 3.8 min
"O=C(O)/C=C/C(=O)O.O=C1c2ccccc2CS(=O)(=O)N1CCCN1CCC(Cc2ccccc2)CC1 [Example 3, 3-[3-(4-Benzylpiperidino)propyl]-1H-2,3-benzothiazin-4(3H)-one 2,2-Dioxide Fumarate]",2 min,,
"Cl.O=C1CN(CCCN2CCN(C(c3ccccc3)c3ccccc3)CC2)S(=O)(=O)c2ccccc21 [Example 12, 2-[3-(4-Diphenylmethyl-1-piperazinyl)propyl]-2H-1,2-benzothiazin-4(3H)-one 1,1-Dioxide Hydrochloride]",2.5 min,,
"CCCCN(CCCN1CC(=O)c2ccccc2S1(=O)=O)Cc1ccccc1.Cl [Example 11, 2-[3-(N-Benzyl-N-butylamino)propyl]-2H-1,2-benzothiazin-4(3H)-one 1,1-Dioxide Hydrochloride]",3.9 min,37 mg/kg,
"CS(=O)(=O)O.O=C1c2ccccc2CS(=O)(=O)N1C(CCN1CCSCC1)c1ccccc1 (stereo not drawn) [Example 26, 3-(1-Phenyl-3-thiomorpholinopropyl)-1H-2,3-benzothiazin-4(3H)-one 2,2-Dioxide Mesylate]",,37 mg/kg,Period of Contraction Inhibition ([1]; 4 mg/kg i.v.): 7.3 min
"Cl.O=C1CN(C(CCN2CCOCC2)c2ccccc2)S(=O)(=O)c2ccccc21 (stereo not drawn) [Example 20[A], 2-(3-Morpholino-1-phenylpropyl)-2H-1,2-benzothiazin-4(3H)-one 1,1-Dioxide Hydrochloride]",,> 120 mg/kg,Period of Contraction Inhibition ([1]; 12 mg/kg i.v.): 9.7 min
"O=C(O)/C=C/C(=O)O.O=C1c2ccccc2CS(=O)(=O)N1C(CCN1CCOCC1)c1ccccc1 (single isomer, unassigned; (+)) [Example 24[C]] [(+)-3-(3-Morpholino-1-phenylpropyl)-1H-2,3-benzothiazin-4(3H)-one 2,2-Dioxide Fumarate]",,,"Period of Contraction Inhibition [1, 4]: 0.7 min; Mouse LD50 ([2]; Fumarate): 167 mg/kg"
"O=C(O)/C=C/C(=O)O.O=C1c2ccccc2CS(=O)(=O)N1C(CCN1CCOCC1)c1ccccc1 (stereo not drawn) [Example 24[A], 3-(3-Morpholino-1-phenylpropyl)-1H-2,3-benzothiazin-4(3H)-one 2,2-Dioxide Fumarate]",,62 mg/kg,Period of Contraction Inhibition ([1]; 12 mg/kg i.v.): 5.6 min
"N#CC1(c2ccccc2)CCN(CCC(c2ccccc2)N2CC(=O)c3ccccc3S2(=O)=O)CC1.O=C(O)/C=C/C(=O)O (stereo not drawn) [Example 34, 2-[3-(4-Cyano-4-phenylpiperidino)-1-phenylpropyl]-2H-1,2-benzothiazin-4(3H)-one 1,1-Dioxide Fumarate]",3 min,,
"Cl.O=C1CN(CCCN2CCC(Oc3ccccc3)CC2)S(=O)(=O)c2ccccc21 [Example 1, 2-[3-(4-Phenoxypiperidino)propyl]-2H-1,2-benzothiazin-4(3H)-one 1,1-dioxide Hydrochloride]",,,Period of Contraction Inhibition ([1]; 1 mg/kg i.v.): 2.8 min
"CC(=O)N1CCN(CCC(c2ccccc2)N2C(=O)c3ccccc3S2(=O)=O)CC1 (stereo not drawn) [Example XI, 2-[3-(4-Acetyl-1-piperazinyl)-1-pheny]propyl-1,2-benzisothiazol-3(2H)-one 1,1-Dioxide Fumarate]",,170 mg/kg,Period of Contraction Inhibition ([1]; 17 mg/kg i.v.): 6.0 min
"Cl.O=C1CN(CCCN2CCC(Cc3ccccc3)CC2)S(=O)(=O)c2ccccc21 [Example 10, 2-[3-(4-Benzylpiperidino)propyl)-2H-1,2-benzothiazin-4(3H)-one 1,1-Dioxide Hydrochloride]",14.5 min,3 mg/kg,
"O=C1CN(CCCN2CCc3ccccc3C2)S(=O)(=O)c2ccccc21 [Example 15, 2-[3-[2-(1,2,3,4-Tetrahydroisoquinolyl)]propyl]-2H-1,2-benzothiazin-4(3H)-one 1,1-Dioxide Hydrochloride]",4.7 min,23 mg/kg,
"O=C(O)/C=C/C(=O)O.O=C1c2ccccc2CS(=O)(=O)N1C(CCN1CCOCC1)c1ccccc1 (single isomer, unassigned; (-)) [Example 24[B]] [(-)-3-(3-Morpholino-1-phenylpropyl)-1H-2,3-benzothiazin-4(3H)-one 2,2-Dioxide Fumarate]",,,"Period of Contraction Inhibition [1, 4]: 8.5 min; Mouse LD50 ([2]; Fumarate): 32 mg/kg"
